In ChEMBL document CHEMBL1142214, “Synergistic interaction between phenothiazines and antimicrobial agents against Burkholderia pseudomallei” (2007):
Values after ≈ are worked out from the molar mass of the structure shown. Active and inactive are the calls of the source. No cut-off for these calls is given here.

Legend:
[1] = tested on: Burkholderia pseudomallei; test: Antimicrobial activity against Burkholderia pseudomallei KHW in presence of 31.3 uM prochlorperazine; assay type: functional
[2] = tested on: Burkholderia pseudomallei; test: Antimicrobial activity against Burkholderia pseudomallei KHW in presence of 7.8 uM prochlorperazine; assay type: functional
[3] = tested on: Burkholderia pseudomallei; test: Antimicrobial activity against Burkholderia pseudomallei KHW in presence of 31.3 uM chlorpromazine; assay type: functional
[4] = tested on: Burkholderia pseudomallei; test: Antimicrobial activity against Burkholderia pseudomallei KHW in presence of 15.6 uM omeprazole; assay type: functional
[5] = tested on: Burkholderia pseudomallei; test: Antimicrobial activity against Burkholderia pseudomallei KHW in presence of 1000 uM omeprazole; assay type: functional
[6] = tested on: Burkholderia pseudomallei; test: Antimicrobial activity against Burkholderia pseudomallei KHW in presence of 31.3 uM omeprazole; assay type: functional
[7] = tested on: Burkholderia pseudomallei; test: Antimicrobial activity against Burkholderia pseudomallei KHW in presence of 500 uM promazine; assay type: functional
[8] = tested on: Burkholderia pseudomallei; test: Antimicrobial activity against Burkholderia pseudomallei KHW in presence of 1000 uM prochlorperazine; assay type: functional
[9] = tested on: Burkholderia pseudomallei; test: Antimicrobial activity against Burkholderia pseudomallei KHW in presence of 1000 uM chlorpromazine; assay type: functional
[10] = tested on: Burkholderia pseudomallei; test: Antimicrobial activity against Burkholderia pseudomallei KHW in presence of 125 uM prochlorperazine; assay type: functional
[11] = tested on: Burkholderia pseudomallei; test: Antimicrobial activity against Burkholderia pseudomallei KHW in presence of 15.6 uM prochlorperazine; assay type: functional
[12] = tested on: Burkholderia pseudomallei; test: Antimicrobial activity against Burkholderia pseudomallei KHW in presence of 1000 uM promazine; assay type: functional
[13] = tested on: Burkholderia pseudomallei; test: Antimicrobial activity against Burkholderia pseudomallei KHW in presence of 3.9 uM prochlorperazine; assay type: functional
[14] = tested on: Burkholderia pseudomallei; test: Antimicrobial activity against Burkholderia pseudomallei KHW in presence of 3.9 uM chlorpromazine; assay type: functional
[15] = tested on: Burkholderia pseudomallei; test: Antimicrobial activity against Burkholderia pseudomallei KHW in presence of 62.5 uM chlorpromazine; assay type: functional
[16] = tested on: Burkholderia pseudomallei; test: Antimicrobial activity against Burkholderia pseudomallei KHW in presence of 250 uM chlorpromazine; assay type: functional
[17] = tested on: Burkholderia pseudomallei; test: Antimicrobial activity against Burkholderia pseudomallei KHW in presence of 62.5 uM promazine; assay type: functional
[18] = tested on: Burkholderia pseudomallei; test: Antimicrobial activity against Burkholderia pseudomallei KHW in presence of 125 uM promazine; assay type: functional
[19] = tested on: Burkholderia pseudomallei; test: Antimicrobial activity against Burkholderia pseudomallei KHW in presence of 500 uM chlorpromazine; assay type: functional
[20] = tested on: Burkholderia pseudomallei; test: Antimicrobial activity against Burkholderia pseudomallei KHW in presence of 500 uM prochlorperazine; assay type: functional
[21] = tested on: Burkholderia pseudomallei; test: Antimicrobial activity against Burkholderia pseudomallei KHW in presence of 7.8 uM promazine; assay type: functional
[22] = tested on: Burkholderia pseudomallei; test: Antimicrobial activity against Burkholderia pseudomallei KHW in presence of 62.5 uM omeprazole; assay type: functional
[23] = tested on: Burkholderia pseudomallei; test: Antimicrobial activity against Burkholderia pseudomallei KHW in presence of 7.8 uM chlorpromazine; assay type: functional
[24] = tested on: Burkholderia pseudomallei; test: Antimicrobial activity against Burkholderia pseudomallei KHW in presence of 500 uM omeprazole; assay type: functional
[25] = tested on: Burkholderia pseudomallei; test: Antimicrobial activity against Burkholderia pseudomallei KHW in presence of 125 uM omeprazole; assay type: functional
[26] = tested on: Burkholderia pseudomallei; test: Antimicrobial activity against Burkholderia pseudomallei KHW; assay type: functional
[27] = tested on: Burkholderia pseudomallei; test: Antimicrobial activity against Burkholderia pseudomallei KHW in presence of 15.6 uM chlorpromazine; assay type: functional
[28] = tested on: Burkholderia pseudomallei; test: Antimicrobial activity against Burkholderia pseudomallei KHW in presence of 125 uM chlorpromazine; assay type: functional
[29] = tested on: Burkholderia pseudomallei; test: Antimicrobial activity against Burkholderia pseudomallei KHW in presence of 3.9 uM promazine; assay type: functional
[30] = tested on: Burkholderia pseudomallei; test: Antimicrobial activity against Burkholderia pseudomallei KHW in presence of 7.8 uM omeprazole; assay type: functional
[31] = tested on: Burkholderia pseudomallei; test: Antimicrobial activity against Burkholderia pseudomallei KHW in presence of 250 uM omeprazole; assay type: functional
[32] = tested on: Burkholderia pseudomallei; test: Antimicrobial activity against Burkholderia pseudomallei KHW in presence of 250 uM prochlorperazine; assay type: functional
[33] = tested on: Burkholderia pseudomallei; test: Antimicrobial activity against Burkholderia pseudomallei KHW in presence of 250 uM promazine; assay type: functional
[34] = tested on: Burkholderia pseudomallei; test: Antimicrobial activity against Burkholderia pseudomallei KHW in presence of 15.6 uM promazine; assay type: functional
[35] = tested on: Burkholderia pseudomallei; test: Antimicrobial activity against Burkholderia pseudomallei KHW in presence of 31.3 uM promazine; assay type: functional
[36] = tested on: Burkholderia pseudomallei; test: Antimicrobial activity against Burkholderia pseudomallei KHW in presence of 62.5 uM prochlorperazine; assay type: functional
[37] = tested on: Burkholderia pseudomallei; test: Antimicrobial activity against Burkholderia pseudomallei KHW in presence of 3.9 uM omeprazole; assay type: functional
[38] = tested on: Burkholderia pseudomallei; test: Attenuation of A549 cell invasion by Burkholderia pseudomallei KHW at 8 ug/ml in presence of 500 uM chlorpromazine; assay type: functional, organism-based
[39] = tested on: Burkholderia pseudomallei; test: Attenuation of Burkholderia pseudomallei KHW cytotoxicity in A549 cells at 8 ug/ml in presence of 250 uM prochlorperazine; assay type: functional, organism-based
[40] = tested on: Burkholderia pseudomallei; test: Attenuation of THP1 cell invasion by Burkholderia pseudomallei KHW at 128 ug/ml; assay type: functional, organism-based; conditions: THP-1
[41] = tested on: Burkholderia pseudomallei; test: Attenuation of Burkholderia pseudomallei KHW cytotoxicity in A549 cells at 8 ug/ml in presence of 500 uM chlorpromazine; assay type: functional, organism-based
[42] = tested on: Burkholderia pseudomallei; test: Attenuation of A549 cell invasion by Burkholderia pseudomallei KHW at 8 ug/ml in presence of 250 uM prochlorperazine; assay type: functional, organism-based
[43] = tested on: Burkholderia pseudomallei; test: Attenuation of THP1 cell invasion by Burkholderia pseudomallei KHW at 8 ug/ml; assay type: functional, organism-based; conditions: THP-1
[44] = tested on: Burkholderia pseudomallei; test: Attenuation of THP1 cell invasion by Burkholderia pseudomallei KHW at 8 ug/ml in presence of 500 uM chlorpromazine; assay type: functional, organism-based; conditions: THP-1
[45] = tested on: Burkholderia pseudomallei; test: Attenuation of A549 cell invasion by Burkholderia pseudomallei KHW at 8 ug/ml; assay type: functional, organism-based
[46] = tested on: Burkholderia pseudomallei; test: Attenuation of THP1 cell invasion by Burkholderia pseudomallei KHW at 8 ug/ml in presence of 250 uM prochlorperazine; assay type: functional, organism-based; conditions: THP-1
[47] = tested on: Burkholderia pseudomallei; test: Attenuation of Burkholderia pseudomallei KHW cytotoxicity in THP1 cells at 128 ug/ml; assay type: functional, organism-based; conditions: THP-1
[48] = tested on: Burkholderia pseudomallei; test: Attenuation of Burkholderia pseudomallei KHW cytotoxicity in THP1 cells at 8 ug/ml in presence of 250 uM prochlorperazine; assay type: functional, organism-based; conditions: THP-1
[49] = tested on: Burkholderia pseudomallei; test: Attenuation of A549 cell invasion by Burkholderia pseudomallei KHW at 128 ug/ml; assay type: functional, organism-based
[50] = tested on: Burkholderia pseudomallei; test: Attenuation of Burkholderia pseudomallei KHW cytotoxicity in A549 cells at 128 ug/ml; assay type: functional, organism-based
[51] = tested on: Burkholderia pseudomallei; test: Attenuation of Burkholderia pseudomallei KHW cytotoxicity in THP1 cells at 8 ug/ml in presence of 500 uM chlorpromazine; assay type: functional, organism-based; conditions: THP-1

CC[C@H]1OC(=O)[C@H](C)[C@@H](O[C@H]2C[C@@](C)(OC)[C@@H](O)[C@H](C)O2)[C@H](C)[C@@H](O[C@@H]2O[C@H](C)C[C@H](N(C)C)[C@H]2O)[C@](C)(O)C[C@@H](C)CN(C)[C@H](C)[C@@H](O)[C@]1(C)O [AZITHROMYCIN]
MIC [1]: 32 µg/mL
MIC [2]: 32 µg/mL
MIC [3]: 32 µg/mL
MIC [4]: 32 µg/mL
MIC [5]: 16 µg/mL
MIC [6]: 32 µg/mL
MIC [7]: 16 µg/mL
MIC [8]: < 0.25 µg/mL
MIC [9]: < 0.25 µg/mL
MIC [10]: 16 µg/mL
MIC [11]: 32 µg/mL
MIC [12]: < 0.25 µg/mL
MIC [13]: 32 µg/mL
MIC [14]: 32 µg/mL
MIC [15]: 32 µg/mL
MIC [16]: 16 µg/mL
MIC [17]: 32 µg/mL
MIC [18]: 32 µg/mL
MIC [19]: 8 µg/mL
MIC [20]: < 0.25 µg/mL
MIC [21]: 32 µg/mL
MIC [22]: 32 µg/mL
MIC [23]: 32 µg/mL
MIC [24]: 16 µg/mL
MIC [25]: 32 µg/mL
MIC [26]: 32 µg/mL (≈ 42.7 µM)
MIC [27]: 32 µg/mL
MIC [28]: 16 µg/mL
MIC [29]: 32 µg/mL
MIC [30]: 32 µg/mL
MIC [31]: 32 µg/mL
MIC [32]: < 0.25 µg/mL
MIC [33]: 32 µg/mL
MIC [34]: 32 µg/mL
MIC [35]: 32 µg/mL
MIC [36]: 32 µg/mL
MIC [37]: 32 µg/mL

CC[C@H]1OC(=O)[C@H](C)[C@@H](O[C@H]2C[C@@](C)(OC)[C@@H](O)[C@H](C)O2)[C@H](C)[C@@H](O[C@@H]2O[C@H](C)C[C@H](N(C)C)[C@H]2O)[C@](C)(O)C[C@@H](C)C(=O)[C@H](C)[C@@H](O)[C@]1(C)O [ERYTHROMYCIN]
MIC [1]: 64 µg/mL
Activity [38]: Active
MIC [2]: 128 µg/mL
MIC [3]: 128 µg/mL
Activity [39]: Active
Activity [40]: Active
MIC [4]: 128 µg/mL
MIC [5]: < 0.25 µg/mL
Activity [41]: Active
Activity [42]: Active
Activity [43]: inactive
MIC [6]: 128 µg/mL
MIC [8]: 8 µg/mL
MIC [9]: < 0.25 µg/mL
Activity [44]: Active
MIC [11]: 64 µg/mL
MIC [12]: < 0.25 µg/mL
MIC [13]: 128 µg/mL
MIC [14]: 128 µg/mL
MIC [15]: 128 µg/mL
MIC [17]: 128 µg/mL
Activity [45]: inactive
Activity [46]: Active
MIC [18]: 128 µg/mL
MIC [19]: 8 µg/mL
Activity [47]: Active
MIC [20]: 8 µg/mL
Activity [48]: Active
MIC [21]: 128 µg/mL
MIC [22]: 128 µg/mL
MIC [23]: 128 µg/mL
MIC [24]: 128 µg/mL
MIC [25]: 128 µg/mL
MIC [26]: 128 µg/mL (≈ 174 µM)
MIC [27]: 128 µg/mL
MIC [28]: 128 µg/mL
MIC [29]: 128 µg/mL
MIC [30]: 128 µg/mL
MIC [31]: 128 µg/mL
MIC [32]: 8 µg/mL
MIC [33]: 64 µg/mL
Activity [49]: Active
MIC [34]: 128 µg/mL
MIC [35]: 128 µg/mL
MIC [37]: 128 µg/mL
Activity [50]: Active
Activity [51]: Active

C[C@H]1COc2c(N3CCN(C)CC3)c(F)cc3c(=O)c(C(=O)O)cn1c23.C[C@H]1COc2c(N3CCN(C)CC3)c(F)cc3c(=O)c(C(=O)O)cn1c23.O [LEVOFLOXACIN]
MIC [1]: 2 µg/mL
MIC [2]: 2 µg/mL
MIC [3]: 2 µg/mL
MIC [4]: 2 µg/mL
MIC [6]: 2 µg/mL
MIC [8]: < 0.25 µg/mL
MIC [9]: < 0.25 µg/mL
MIC [10]: 2 µg/mL
MIC [11]: 2 µg/mL
MIC [12]: < 0.25 µg/mL
MIC [13]: 2 µg/mL
MIC [14]: 2 µg/mL
MIC [15]: 2 µg/mL
MIC [17]: 2 µg/mL
MIC [18]: 2 µg/mL
MIC [19]: < 0.25 µg/mL
MIC [20]: < 0.25 µg/mL
MIC [21]: 2 µg/mL
MIC [22]: 2 µg/mL
MIC [23]: 2 µg/mL
MIC [24]: 2 µg/mL
MIC [25]: 2 µg/mL
MIC [26]: 2 µg/mL
MIC [27]: 2 µg/mL
MIC [28]: 2 µg/mL
MIC [29]: 2 µg/mL
MIC [30]: 2 µg/mL
MIC [31]: 2 µg/mL
MIC [32]: 2 µg/mL
MIC [33]: 2 µg/mL
MIC [34]: 2 µg/mL
MIC [35]: 2 µg/mL
MIC [36]: 2 µg/mL
MIC [37]: 2 µg/mL
